What all share (type): cell-based
Experiment [1] has as its target T1, TRPML3 (Homo sapiens, UniProt Q8TDD5).
T1 construct: expressed in transfected cells
T1 sequence (Q8TDD5 1-553): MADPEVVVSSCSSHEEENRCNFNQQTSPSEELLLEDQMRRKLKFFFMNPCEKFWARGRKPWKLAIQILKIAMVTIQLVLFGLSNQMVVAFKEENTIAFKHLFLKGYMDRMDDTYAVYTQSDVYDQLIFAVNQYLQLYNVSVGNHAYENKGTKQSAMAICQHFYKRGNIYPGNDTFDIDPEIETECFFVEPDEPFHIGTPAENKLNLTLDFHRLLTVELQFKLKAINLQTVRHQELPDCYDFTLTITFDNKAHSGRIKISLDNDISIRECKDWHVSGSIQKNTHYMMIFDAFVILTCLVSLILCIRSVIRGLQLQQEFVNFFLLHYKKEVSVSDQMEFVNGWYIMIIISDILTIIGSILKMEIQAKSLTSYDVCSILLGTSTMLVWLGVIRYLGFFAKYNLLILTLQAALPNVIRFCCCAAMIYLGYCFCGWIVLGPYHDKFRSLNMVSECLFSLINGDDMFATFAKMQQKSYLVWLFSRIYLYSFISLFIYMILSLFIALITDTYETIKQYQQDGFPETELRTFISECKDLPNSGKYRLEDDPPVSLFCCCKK
The experiment is described as follows: Fluorescent TRPML3 assay (performed as for TRPML1, substituting the TRPML3 subtype). The essentials:
(§1)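 HEK-293 Trex cells with doxycycline-induced (0.5 ug/mL) surface-directed human TRPML subtype, loaded with 1 μM Fluo4-AM, resuspended in Ringer's with 10 mM calcium. Compounds at 20 μM to 6 nM final in half-log steps, triplicate; fluorescence ex 480/em 540; EC50 by non-linear regression versus plate controls.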

Experiment [2] has as its target TRPML1 (Homo sapiens, UniProt Q9GZU1). Put plainly: Fluorescent TRPML1 assay (Fluo4-AM calcium fluorescence in doxycycline-induced HEK-293 Trex cells). The essentials:
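hTRPML1 (mutated for cell-surface expression) in HEK-293 Trex, dox 0.5 ug/mL o/n; Fluo4-AM 1 uM ~60 min, then ~60 min de-esterification, dark; modified Ringer's + 10 mM Ca. Cmpds 20 uM–6 nM final, half-log, n=3. Ex480/Em540; % activity vs ctrls; EC50 by nonlinear regression.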

Experiment [3] concerns the target T2, TRPML2 (Homo sapiens, UniProt Q8IZK6).
T2 construct: expressed in transfected cells
T2 sequence (Q8IZK6 1-566): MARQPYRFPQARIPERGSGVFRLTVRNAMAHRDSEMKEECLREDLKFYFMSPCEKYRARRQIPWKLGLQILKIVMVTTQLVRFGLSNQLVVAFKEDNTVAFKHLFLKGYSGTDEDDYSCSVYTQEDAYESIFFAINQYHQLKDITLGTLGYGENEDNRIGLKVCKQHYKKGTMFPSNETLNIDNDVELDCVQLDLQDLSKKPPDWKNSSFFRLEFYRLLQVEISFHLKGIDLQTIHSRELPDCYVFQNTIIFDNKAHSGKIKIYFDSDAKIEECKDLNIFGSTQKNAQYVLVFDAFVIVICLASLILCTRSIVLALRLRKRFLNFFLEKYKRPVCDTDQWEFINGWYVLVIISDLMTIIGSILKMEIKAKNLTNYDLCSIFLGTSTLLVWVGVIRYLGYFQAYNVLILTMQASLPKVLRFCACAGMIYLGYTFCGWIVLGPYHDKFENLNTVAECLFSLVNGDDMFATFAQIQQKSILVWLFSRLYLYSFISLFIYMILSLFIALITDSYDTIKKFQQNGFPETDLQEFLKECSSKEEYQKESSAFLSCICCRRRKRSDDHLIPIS
Put plainly: Fluorescent TRPML2 assay (performed as for TRPML1, substituting the TRPML2 subtype). The method, boiled down:
as §1

pEC50: −log10 of the molar value. Read-outs that look alike come from different tables or passages of the source. Where only a bound is given, the exact number is not on record here.

Sequence of TRPML1 (Q9GZU1 whole entry L15A/L16A/L577A/L578A, form open): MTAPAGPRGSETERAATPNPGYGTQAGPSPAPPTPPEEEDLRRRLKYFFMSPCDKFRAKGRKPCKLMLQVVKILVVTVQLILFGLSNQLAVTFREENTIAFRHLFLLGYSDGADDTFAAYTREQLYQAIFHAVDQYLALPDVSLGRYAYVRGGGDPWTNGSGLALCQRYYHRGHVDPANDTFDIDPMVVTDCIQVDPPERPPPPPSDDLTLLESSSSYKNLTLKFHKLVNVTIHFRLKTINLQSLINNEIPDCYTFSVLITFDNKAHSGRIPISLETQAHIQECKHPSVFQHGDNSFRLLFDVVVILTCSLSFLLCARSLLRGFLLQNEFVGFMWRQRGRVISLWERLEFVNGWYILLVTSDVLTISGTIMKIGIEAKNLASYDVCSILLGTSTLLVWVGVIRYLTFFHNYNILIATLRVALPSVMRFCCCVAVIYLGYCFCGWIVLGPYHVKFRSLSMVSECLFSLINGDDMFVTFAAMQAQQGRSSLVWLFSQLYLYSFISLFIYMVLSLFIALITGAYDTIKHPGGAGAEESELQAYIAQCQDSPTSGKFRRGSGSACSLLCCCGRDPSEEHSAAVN

By pEC50 is commonly meant the EC50 on a negative log10 scale, so that one unit is a factor of ten. For the compound `COc1cccc(-n2cc(C3CC3)c3c(N4CCN(C(=O)OC(C)(C)C)C[C@H]4C)ncnc32)c1` [Compound 201, tert-butyl (R)-4-(5-cyclopropyl-7-(3-methoxyphenyl)-7H-pyrrolo[2,3-d]pyrimidin-4-yl)-3-methylpiperazine-1-carboxylate], the pEC50 is 6.30 to 7.00 in experiment [1] (fluorescent calcium assay), 6.30 to 7.00 in experiment [2] (fluorescent calcium assay) and 5.70 to 6.30 in experiment [3] (fluorescent calcium assay).
On to `C[C@H]1CN(C(=O)OC(C)(C)C)CCN1c1ncnc2c1c(-c1nccnc1C#N)cn2-c1cccc(Cl)c1` [Compound 274, tert-butyl (S)-4-(7-(3-chlorophenyl)-5-(3-cyanopyrazin-2-yl)-7H-pyrrolo[2,3-d]pyrimidin-4-yl)-3-methylpiperazine-1-carboxylate], for which the pEC50 in experiment [1] (fluorescent calcium assay) was 6.30 to 7.00; in experiment [2] (fluorescent calcium assay), 6.30 to 7.00; in experiment [3] (fluorescent calcium assay), 5.70 to 6.30.
With `[2H]C([2H])([2H])[C@@H]1CN(c2ncnc3c2c(-c2ccccc2F)cn3-c2cc(C#N)ccn2)[C@@H](C)CN1C(=O)OC(C)(C)C` [Compound 712, tert-butyl (2R,5S)-4-(7-(4-cyanopyridin-2-yl)-5-(2-fluorophenyl)-7H-pyrrolo[2,3-d]pyrimidin-4-yl)-5-methyl-2-(methyl-d3)piperazine-1-carboxylate], the negative logarithm of the EC50 (pEC50) in experiment [1], in experiment [2] and in experiment [3] was > 7.00 throughout.
As for `C[C@@H]1CN(c2ncnc3c2c(-c2ccccc2F)cn3-c2cc(F)ccn2)[C@@H](C)CN1C(=O)OC1(C)CC1` [Compound 653, 1-methylcyclopropyl (2R,5S)-4-(5-(2-fluorophenyl)-7-(4-fluoropyridin-2-yl)-7H-pyrrolo[2,3-d]pyrimidin-4-yl)-2,5-dimethylpiperazine-1-carboxylate], the pEC50 in experiment [1], in experiment [2] and in experiment [3] was > 7.00 each time.
As to `C[C@H]1CN(C(=O)OC(C)(C)C)CCN1c1ncnc2c1c(-c1ccccc1F)cn2-c1ccnnc1` [Compound 451, tert-butyl (S)-4-(5-(2-fluorophenyl)-7-(pyridazin-4-yl)-7H-pyrrolo[2,3-d]pyrimidin-4-yl)-3-methylpiperazine-1-carboxylate], the pEC50 in experiment [1] (fluorescent calcium assay) was 6.30 to 7.00; in experiment [2] (fluorescent calcium assay), 6.30 to 7.00; in experiment [3] (fluorescent calcium assay) it was < 5.70.
For `C[C@@H]1CN(c2ncnc3c2c(C2CC2)cn3-c2cccc(Cl)c2)[C@@H](C)CN1C(=O)OC(C)(C)C` [Compound 130, tert-butyl (2R,5S)-4-(7-(3-chlorophenyl)-5-cyclopropyl-7H-pyrrolo[2,3-d]pyrimidin-4-yl)-2,5-dimethylpiperazine-1-carboxylate], the pEC50 was > 7.00 in experiment [1] (fluorescent calcium assay), > 7.00 in experiment [2] (fluorescent calcium assay) and 6.30 to 7.00 in experiment [3] (fluorescent calcium assay).
As for `C[C@H]1CN(C(=O)OC(C)(C)C)CCN1c1ncnc2c1c(C1CC1)cn2C1CC(C#N)C1` (stereo partly drawn) [Compound 414, tert-butyl (S)-4-(7-(3-cyanocyclobutyl)-5-cyclopropyl-7H-pyrrolo[2,3-d]pyrimidin-4-yl)-3-methylpiperazine-1-carboxylate], the pEC50 in experiment [1] (fluorescent calcium assay) is 5.70 to 6.30; in experiment [2] (fluorescent calcium assay) it was 5.70 to 6.30; in experiment [3] (fluorescent calcium assay), < 5.70.
As for `C[C@@H]1CN(c2ncnc3c2c(-c2ccccc2F)cn3-c2cc(C#N)ccn2)[C@@H](C)CN1C(=O)OC(C)(C)C` [Compound 390], the pEC50 in experiment [1] (fluorescent calcium assay), in experiment [2] (fluorescent calcium assay) and in experiment [3] (fluorescent calcium assay) was > 7.00 in each case.
Regarding `Cc1nccnc1-c1cn(-c2cc(F)cc(F)c2)c2ncnc(N3CCN(C(=O)OC(C)(C)C(F)(F)F)[C@H](C)C3)c12` [Compound 243, 1,1,1-trifluoro-2-methylpropan-2-yl (R)-4-(7-(3,5-difluorophenyl)-5-(3-methylpyrazin-2-yl)-7H-pyrrolo[2,3-d]pyrimidin-4-yl)-2-methylpiperazine-1-carboxylate], the negative-log EC50 (pEC50) in experiment [1] (fluorescent calcium assay) was 6.30 to 7.00; in experiment [2] (fluorescent calcium assay), 6.30 to 7.00; in experiment [3] (fluorescent calcium assay), 5.70 to 6.30.

The values are drawn from patent US20250136606A1, “MODULATORS OF TRPML, THEIR COMPOSITIONS AND METHODS OF USE” (Caraway Therapeutics, Inc., priority 2021, published 2025).
